Data taken from publication PMC11005233, “Targeting FTO induces colorectal cancer ferroptotic cell death by decreasing SLC7A11/GPX4 expression” (Journal of Experimental & Clinical Cancer Research : CR, 2024).

Biological target: fat mass and obesity-associated protein (FTO) (Homo sapiens, UniProt Q9C0B1)
Assay: SPR (Biacore T200); also thermal shift, CETSA, cell-free m6A demethylase assay
Type: binding

Sequence of fat mass and obesity-associated protein (FTO) (Q9C0B1 whole entry): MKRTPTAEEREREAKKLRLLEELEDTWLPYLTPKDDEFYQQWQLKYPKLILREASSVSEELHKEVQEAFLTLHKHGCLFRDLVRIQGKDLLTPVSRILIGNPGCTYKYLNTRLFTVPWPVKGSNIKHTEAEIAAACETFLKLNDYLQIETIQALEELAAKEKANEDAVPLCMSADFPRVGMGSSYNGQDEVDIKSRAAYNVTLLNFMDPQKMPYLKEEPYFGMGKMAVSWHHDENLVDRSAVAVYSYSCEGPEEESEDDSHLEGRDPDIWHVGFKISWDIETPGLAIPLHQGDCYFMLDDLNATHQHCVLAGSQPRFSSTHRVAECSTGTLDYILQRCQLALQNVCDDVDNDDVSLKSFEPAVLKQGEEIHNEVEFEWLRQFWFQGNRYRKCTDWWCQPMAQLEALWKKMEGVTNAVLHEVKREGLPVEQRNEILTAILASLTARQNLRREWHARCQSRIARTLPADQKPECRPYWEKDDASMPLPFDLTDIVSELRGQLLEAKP

Kd: 3.63 µM
Compound: C/C(=C\C(=O)OCCCCCCCCC(=O)O)C[C@@H]1OC[C@H](C[C@@H]2O[C@H]2[C@@H](C)[C@H](C)O)[C@@H](O)[C@H]1O [Mupirocin]
